The series can be described thus: gradient 5% acetonitrile 3 min, to 50% in 2 min, to 85% in 15 min, held 3 min, 100 µL/min. The following applies: column: Zorbax Extend-C18 2.1 x 50 mm; eluents: water / acetonitrile, 0.1% formic acid. In outline:
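Mixtures of ~100 pure standards were chromatographed on a Zorbax Extend-C18 column (2.1 × 50 mm, 1.8 μm) at 100 μL/min using water and acetonitrile, each with 0.1% formic acid. Detection used a quadrupole time-of-flight mass spectrometer in positive and negative ionization mode, and data collection spanned 3 months. Retention time was obtained from adduct peaks picked computationally and each checked manually.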
As for `Cc1ccc(-c2cc3c4nnc(SCC(=O)Nc5ccccc5C(F)(F)F)n4ccn3n2)cc1C`, the RP-LC retention time was found to be 1020 s.
Next, `COc1ccc(Nc2ccc3c(=O)c(-c4ccccc4OC)coc3c2)c(OC)c1`: 940 s; `CCN1CCCn2cc(S(=O)(=O)Nc3cc(OC)ccc3OC)cc2C1=O`: 704 s.
Consider `Cc1ccc(C2=NC3(CCN(C(=O)c4ccc(C#N)cc4)CC3)ON2)cc1`, for which the RP-LC retention time came out at 776 s.
In turn, `CC(NC(=O)c1ccccc1)c1nc(-c2ccc(NS(=O)(=O)c3cccs3)cc2)no1` (centres undefined) came in with an RP-LC retention time of 890 s.
For `COc1ccc(-n2c(N)cc(=O)nc2SCC(=O)NC2CCCCC2)cc1` the value was 601 s.
`CC(C)NC(=O)C1CCCN(S(=O)(=O)c2cc(-c3noc(C4CCCC4)n3)cs2)C1` (centres undefined) came in with an RP-LC retention time of 1050 s.
Next, `Cn1c(=O)n(C2CCCN(C(=O)Cc3ccccc3)C2)c2ncncc21` (centres undefined): 668 s.
Compound `CCN1CCN(CCNC(=O)C2CCCN(C(=O)c3[nH]c(C)c(C(=O)OC(C)C)c3C)C2)CC1` (centres undefined) showed an RP-LC retention time of 596 s.
For `CCc1nnc(NC(=O)Cc2csc(-n3cccc3)n2)s1` the value was 701 s.
For `CNC(=O)CCc1nc2ccccc2n(CC(=O)NCc2ccc(F)cc2)c1=O` the value was 666 s; for `Cc1ccc(NC(=O)N2CCCC2c2nncn2-c2ccccc2)cc1C` (centres undefined), 767 s; for `Cc1ccc(-c2nc3cnccn3c2NCCC(=O)NC2CCCC2)cc1`, 696 s.
For `Cc1ccc(NC(=O)CSc2ccc(N3CCCC(C(=O)NC4CC4)C3)nn2)cc1` (centres undefined) the value was 659 s; for `O=C(NCc1cccc(C(F)(F)F)c1)C1CCCN(c2nccnc2Oc2ccccc2)C1` (centres undefined), 1040 s; for `CCc1nnc(-c2ccc3ccn(CC(=O)Nc4ccc(OC)cc4)c3c2)o1`, 763 s.
Consider `CC1CNc2c(cccc2S(=O)(=O)N[C@@H](CCCN=C(N)N)C(=O)N2CC[C@@H](C)C[C@@H]2C(=O)O)C1` (some centres undefined), for which the RP-LC retention time was 822 s.
For `CCCSCCCNC(=O)COc1ccccc1-c1nnc(-c2ccccc2)o1` the value was 1160 s; for `Cc1nn2c(CNS(=O)(=O)c3c(C)nn(C)c3C)c(C)nc2s1`, 596 s; for `Cc1[nH]c(C(=O)N2CCCC(C(=O)NCc3ccc4c(c3)OCO4)C2)c(C)c1C` (centres undefined), 804 s.
For `Cc1ccc(C)c(NS(=O)(=O)c2cc(-c3[nH]ncc3C(=O)N3CCCCC3)oc2C)c1` the value was 799 s; for `COc1ccc(-c2nnc(-c3nc(N4CCC5(CC4)OCCO5)c4ccccc4n3)o2)cc1`, 936 s.
Next, `COc1ccc(C2C(=O)N(C3CCC(C)CC3)CC(=O)N2Cc2cccs2)cc1OC` (centres undefined): 961 s; `OC[C@@H]1CNC[C@H]1C1CCN(Cc2ccc(Cl)c(F)c2)CC1`: 542 s; `c1ccc(-c2nc3ccccc3nc2N2CCOCC2)cc1`: 995 s.
`CCCn1ccc2sc(C)c(C(=O)NCc3cc(F)ccc3F)c2c1=O` came in with an RP-LC retention time of 940 s.
Next, `O=S(=O)(c1ccc(F)cc1F)N1CCC(c2noc(-c3ccc(F)cc3)n2)CC1`: 1130 s.
Next, `CN(CCc1noc(-c2ccc(C(=O)N3CCOCC3)cc2)n1)C(=O)Cc1ccc(Cl)cc1`: 757 s; `CCc1noc(-c2nnn3c2COC(c2ccc(F)cc2)C3)n1` (centres undefined): 960 s.
Next, `CCC(=O)c1ccc(OCC(O)CN(CC)Cc2ccccc2)cc1` (centres undefined): 566 s; `O=C(Nc1ccc(F)cc1Cl)c1cc2n(n1)CCCC2`: 1010 s.
In the case of `Cc1ccc(Cl)cc1N1CCN(C(=O)C2CCN(c3ncnc4c3oc3ccccc34)CC2)CC1`, the RP-LC retention time was 1060 s.
Next, `CC1CN(Cc2nc3c(c(=O)n(C)c(=O)n3C)n2CCCc2ccccc2)CC(C)O1` (centres undefined): 732 s; `Cn1c(C2CCN(C(=O)Nc3ccc(F)cc3)CC2)cc(=O)n2nccc12`: 615 s.
For `O=C(CSc1nnc(CNC(=O)c2ccc(F)cc2)o1)NCc1ccco1` the value was 647 s; for `Cn1c(=O)c(-c2ccc(C(=O)N3CCOCC3)cc2)nc2ccccc21`, 698 s; for `COc1ccccc1N1CCN(C(=O)CN2C(=O)CC(c3cccs3)=Nc3ccccc32)CC1`, 898 s.
For `CC(C)NC(=O)N(C)Cc1nc2cc(C(=O)N3CCCC3)ccc2n1C` the value was 550 s.
In turn, `COc1ccc(-c2cn3c(CC(=O)Nc4cccc(C(F)(F)F)c4)csc3n2)cc1OC` showed an RP-LC retention time of 841 s.
Compound `CNCc1ccc(-c2cc(Cl)ccc2Cl)o1` showed an RP-LC retention time of 653 s.
For `COc1ccccc1CNc1c(-c2ccc(OC(C)C)cc2)nc2ncccn12` the value was 826 s.
Next, `CCOC(=O)c1cnc2c(-c3ccc(Br)cc3)c(C)nn2c1N`: 1230 s.
Next, `O=C(Nc1ccccc1F)C1CC(=O)N(c2ccc3c(c2)CCN3C(=O)C2CC2)C1` (centres undefined): 749 s.
Regarding `Cc1ccc2c(C)nc(NC3=NCN(CC4CCCO4)CN3)nc2c1` (centres undefined), the RP-LC retention time amounted to 660 s.
For `O=C(c1ccco1)N1CCCn2cc(-c3ccccc3F)nc21` the value was 639 s; for `COc1ccc(Cl)cc1C(=O)NC1CCN(c2cc(-c3cccs3)[nH]n2)CC1`, 865 s.
`CC(C)CC(=O)Nc1ccc(-n2cnc(C(=O)N3CCc4ccccc4C3)c2)nc1`: the RP-LC retention time stood at 817 s.
Take `CC(C)N1C(=O)c2cccnc2Sc2cc(NC(=O)c3ccoc3)ccc21`: the RP-LC retention time was found to be 773 s.
Consider `O=C(Nc1ccc(F)cc1)NC1CCN(c2ccc(F)cc2)C1=O` (centres undefined), for which the RP-LC retention time was found to be 783 s.
Next, `CC(=O)c1ccc(NC(=O)c2[nH]c3cc(C)sc3c2CN2CCCC2)cc1`: 665 s; `COc1cc2nccc(Oc3ccc(NC(=O)C4(C(=O)Nc5ccc(F)cc5)CC4)cc3)c2cc1OC`: 833 s; `Cn1c(=O)c(N2CCN(C(=O)c3ccccc3F)CC2)nc2ccccc21`: 864 s.
For `O=C(c1ccc(C(F)(F)F)s1)N1C[C@@H]2C[C@H]1C[C@@H]2NS(=O)(=O)c1cccs1` the value was 813 s.
Compound `CCOc1ccc(NC(=O)Cn2nc(N3CCC(C)CC3)c3ccccc3c2=O)cc1` gave an RP-LC retention time of 1130 s.
As for `Cc1cccc2nnc(N3CCCN(C(=O)c4ccccc4Cl)CC3)n12`, the RP-LC retention time came to 600 s.
For `CC(=O)N1CCCN(C2=NS(=O)(=O)C(c3ccc(C)cc3)=C2C)CC1` the value was 699 s; for `CCc1ccc(NC(=O)CN2CCc3[nH]c4c(OC)ccc(Cl)c4c(=O)c3C2)cc1`, 661 s; for `CC(C)OCCCNC(=O)C1Cn2cccc2C(=O)N1` (centres undefined), 602 s.
Next, `COC(=O)c1ccc(NC(=O)C(=O)NCC2CCN(C(=O)c3ccccc3F)CC2)cc1`: 751 s.
For `O=C(NCc1ccccc1)c1c(O)c2cccnc2n(-c2ccccc2)c1=O` the value was 1160 s; for `Cc1cc(C(=O)Nc2cccc(-c3ccc(N4CCOCC4)nn3)c2)c(C)o1`, 638 s; for `Cc1ccc(C)c(N2CCN(C(=O)c3cnc4ncnn4c3C)CC2)c1`, 829 s.
Compound `O=C(CC1COc2ccccc2NC1=O)NCCc1ccc(Cl)cc1` (centres undefined) displayed an RP-LC retention time of 910 s.
Next, `Cc1oc(C(C)C)nc1C(=O)NCc1cccc(C(F)(F)F)c1`: 1080 s.
For `Cc1ccc2[nH]cc(CCN3CC(C(=O)Nc4ccc(Cl)cc4)CC3=O)c2c1` (centres undefined) the value was 882 s; for `O=C(Cn1ncc2c(c1=O)N(C1CC1)C(=O)CS2)NC1CCCCC1`, 672 s.
Next, `Cc1ccc2c(c1)C(=O)NC1(CCN(C(=O)Cc3ccc(Cl)cc3)CC1)N2C`: 850 s; `O=C(Nc1nc(-c2cccs2)cs1)c1ccc2ncsc2c1`: 874 s; `CCN(CC)CCNC(=O)C1CCN(C2=NS(=O)(=O)C(c3ccc(Cl)cc3)=C2C)CC1`: 658 s.
`CC(C)(C)NC(=O)NC1CCN(C(=O)C2CCCC2)C1` (centres undefined) registered an RP-LC retention time of 678 s.
For `CCCCn1cc(S(=O)(=O)NCc2cccc(C(F)(F)F)c2)c2cccnc21` the value was 1050 s; for `O=C(CN1C(=O)NC2(CCCCC2)C1=O)Nc1ccc(Cl)cc1`, 825 s.
For `COc1ccc(-c2noc(Cc3nc(-c4ccc(Br)cc4)cs3)n2)cc1` the value was 1280 s; for `CCc1nc(-c2ccc(-c3noc(CNC(=O)c4ccco4)n3)cc2)cs1`, 924 s; for `NC(=O)C1CCN(C(=O)c2ccc(CN3C(=O)CCn4nc(-c5ccc(Cl)cc5)cc43)cc2)CC1`, 713 s.
For `CCn1cc(-c2nc(CC(=O)NCc3cccc(C)c3)cs2)c2cccnc21` the value was 892 s.
Consider `Cc1ccc(F)c(-n2cc(C(=O)O)nn2)c1`, for which the RP-LC retention time was 684 s.
The compound `CON(C)C(=O)N1N=C(c2cc(F)ccc2F)S[C@@]1(CCCN)c1ccccc1` registered an RP-LC retention time of 792 s.
As to `Cc1ccc(F)c(NS(=O)(=O)c2cc(-c3[nH]ncc3C(=O)N3CCCC3)oc2C)c1`, the RP-LC retention time stood at 710 s.

Source of the values: the METLIN SMRT retention time set (Domingo-Almenara et al. 2019).
